The values below come from PMC9986876, “Prediction of Antileishmanial Compounds: General Model, Preparation, and Evaluation of 2-Acylpyrrole Derivatives” (Journal of Chemical Information and Modeling, 2022).

Data set [1] has as its system L. amazonensis (MHOM/Br/79/Maria) promastigotes. Briefly: In vitro promastigote susceptibility assay (resazurin). It counts as cell-based. Particulars: for SI (selectivity index, SI = CC50/IC50): CC50 J774 / IC50 L. amazonensis promastigotes; for IC50: Leishmania amazonensis, L. amazonensis promastigotes, 48 h at 26 °C, triplicate, N/A = not active at 100 μg/mL. The method, then:
(§1) The following species of Leishmania were used: L. donovani (MHOM/IN/80/DD8) was purchased (ATCC, USA) and L. amazonensis (MHOM/Br/79/Maria) was kindly provided by Prof. Alfredo Toraño (Instituto de Salud Carlos III, Madrid). Promastigotes were cultured in Schneider’s insect medium supplemented with 10% heat-inactivated fetal bovine serum (FBS) and 1000 U/L of penicillin plus 100 mg/L of streptomycin in 25 mL culture flasks at 26 °C. […] New samples of the compounds have been prepared according to the protocol described above, and subsequently solutions of the chemical compound to be assayed have been dissolved in DMSO at 50 mg/mL. […] Growth control and signal-to-noise control were also included. The final solvent (DMSO) concentrations never exceeded 0.5% (v/v) warranting no effect on parasite proliferation or morphology. After 48 h at 26 °C, 20 μL of a 2.5 mM resazurin solution was added to each well and the plates were returned to the incubator for another 3 h. […] Growth inhibition (%) was calculated by 100 – [(RFU treated wells – RFU signal-to-noise)/(RFU untreated – RFU signal-to-noise) × 100]. All tests were carried out in triplicate. Miltefosine (Sigma-Merck, Madrid, Spain) was used as the reference drug and was evaluated under the same conditions. […] The selectivity index (SI) was calculated as the ratio between cytotoxicity (CC50) and activity against parasites (IC50).

Data set [2] has as its system L. donovani (MHOM/IN/80/DD8) promastigotes. Described as above. To be noted: for SI (selectivity index, SI = CC50/IC50): CC50 J774 / IC50 L. donovani promastigotes; for IC50: Leishmania donovani, L. donovani promastigotes, 48 h at 26 °C, triplicate, N/A = not active at 100 μg/mL. It counts as cell-based. Here is the method:
as §1

The test system of data set [3] is L. donovani amastigotes. Kind of data set: In vitro intracellular amastigote susceptibility assay in J774 macrophages. Particulars: for IC50: Leishmania donovani, L. donovani intracellular amastigotes in J774, 48 h, N/A = not active at 100 μg/mL. It counts as cell-based. Here is the method:
The following species of Leishmania were used: L. donovani (MHOM/IN/80/DD8) was purchased (ATCC, USA) and L. amazonensis (MHOM/Br/79/Maria) was kindly provided by Prof. Alfredo Toraño (Instituto de Salud Carlos III, Madrid). Promastigotes were cultured in Schneider’s insect medium supplemented with 10% heat-inactivated fetal bovine serum (FBS) and 1000 U/L of penicillin plus 100 mg/L of streptomycin in 25 mL culture flasks at 26 °C. The assay was carried out as previously described.[29] Briefly, 5 × 10^4 J774 macrophages and stationary promastigotes in a 1:5 ratio were seeded in each well of a microtiter plate, suspended in 200 μL of culture medium, and incubated for 24 h at 33 °C in a 5% CO2 chamber. After this first incubation, the temperature was increased up to 37 °C for another 24 h. Thereafter, cells were washed several times in culture medium by centrifugation at 1.500g for 5 min in order to remove free non-internalized promastigotes. Finally, the supernatant was replaced by 200 μL/well of culture medium containing 2-fold serial dilutions of the test compounds as in promastigotes assay. Growth control and signal-to-noise were also included. Following incubation for 48 h at 37 °C and 5% CO2, the culture medium was replaced by 200 μL/well of the lysis solution (RPMI-1640 with 0.048% HEPES and 0.01% SDS) and incubated at room temperature for 20 min. Thereafter, the plates were centrifuged at 3.500g for 5 min and the lysis solution was replaced by 200 μL/well of Schneider’s insect medium. The culture plates were then incubated at 26 °C for another 4 days to allow transformation of viable amastigotes into promastigotes and proliferation. Afterward, 20 μL/well of 2.5 mM resazurin was added and incubated for another 3 h. Finally, fluorescence emission was measured and IC50 was estimated as described above. All tests were carried out in triplicate. […] The IC50 and SI were calculated as in the previous section.

Data set [4] is described as follows: Cytotoxicity assay on macrophages (resazurin). It counts as cell-based, BALB/c mice. Particulars: mouse, J774 macrophages, values marked e correspond to 100 μg/mL, the higher dose tested. Here is the method:
The assay was carried out as previously described.[30] J774 macrophages cell lines were seeded (5 × 10^4 cells/well) in 96-well flat-bottom microplates with 100 μL of RPMI 1640 medium. The cells were allowed to attach for 24 h at 37 °C and 5% CO2, and the medium was replaced by different concentrations of the compounds in 200 μL of medium and exposed for another 24 h. Growth controls and signal-to-noise were also included. Afterward, a volume of 20 μL of 2.5 mM resazurin solution was added, and plates were returned to the incubator for another 3 h to evaluate cell viability. The reduction of resazurin was determined by fluorometry as in the promastigote assay. Each concentration was assayed three times.
On the technique in general: The colour change of resazurin is a common sign of viable cells or microbes.

The test system of data set [5] is L. amazonensis amastigotes. Kind of data set: In vitro intracellular amastigote susceptibility assay in J774 macrophages. It counts as cell-based. Particulars: for IC50: Leishmania amazonensis, L. amazonensis intracellular amastigotes in J774, 48 h, N/A = not active at 100 μg/mL. Here is the method: The following species of Leishmania were used: L. donovani (MHOM/IN/80/DD8) was purchased (ATCC, USA) and L. amazonensis (MHOM/Br/79/Maria) was kindly provided by Prof. Alfredo Toraño (Instituto de Salud Carlos III, Madrid). Promastigotes were cultured in Schneider’s insect medium supplemented with 10% heat-inactivated fetal bovine serum (FBS) and 1000 U/L of penicillin plus 100 mg/L of streptomycin in 25 mL culture flasks at 26 °C. The assay was carried out as previously described.[29] Briefly, 5 × 10^4 J774 macrophages and stationary promastigotes in a 1:5 ratio were seeded in each well of a microtiter plate, suspended in 200 μL of culture medium, and incubated for 24 h at 33 °C in a 5% CO2 chamber. After this first incubation, the temperature was increased up to 37 °C for another 24 h. Thereafter, cells were washed several times in culture medium by centrifugation at 1.500g for 5 min in order to remove free non-internalized promastigotes. Finally, the supernatant was replaced by 200 μL/well of culture medium containing 2-fold serial dilutions of the test compounds as in promastigotes assay. Growth control and signal-to-noise were also included. Following incubation for 48 h at 37 °C and 5% CO2, the culture medium was replaced by 200 μL/well of the lysis solution (RPMI-1640 with 0.048% HEPES and 0.01% SDS) and incubated at room temperature for 20 min. Thereafter, the plates were centrifuged at 3.500g for 5 min and the lysis solution was replaced by 200 μL/well of Schneider’s insect medium. The culture plates were then incubated at 26 °C for another 4 days to allow transformation of viable amastigotes into promastigotes and proliferation. Afterward, 20 μL/well of 2.5 mM resazurin was added and incubated for another 3 h. Finally, fluorescence emission was measured and IC50 was estimated as described above. All tests were carried out in triplicate. Miltefosine (Sigma-Merck, Madrid, Spain) was used as the reference drug and was evaluated under the same conditions. The IC50 and SI were calculated as in the previous section.

Data set [6] deals with Leishmania donovani Promastigotes. Also on record: method as in J. Med. Chem., ( 1991), 34, 9, 2798. To be noted: ChEMBL dataset, some flagged Outside typical range, ref J. Med. Chem., ( 1991), 34, 9, 2798, read-out: vij, Ki; cited from earlier work.
Where [7] appears, read: macrophages J774, 24 h exposure, Table 2.
Setting [8] is: macrophages J774, Table 3 (amastigote assay table).

In the case of `O=C(c1ccc(Br)cc1)c1cccn1-c1ncccn1` [5af], the “SI (selectivity index, SI = CC50/IC50)” value in data set [1] is on record as above 4.54; in data set [2], above 2.58; in data set [3] (CC50 J774 / IC50 L. donovani amastigotes), above 1.45; in data set [5] (CC50 J774 / IC50 L. amazonensis amastigotes), above 1.99. The IC50 (usually the concentration that inhibits the measured activity by half) is 67.2 ± 4.94 µM in data set [1], 118 ± 25.8 µM in data set [2], 211 ± 30.3 µM in data set [3] and 153 ± 9.11 µM in data set [5]. The CC50 at 24 h in data set [4] (setting [7]) and in data set [4] (setting [8]) was above 305 µM each time.
As for `Cc1cccnc1-n1cccc1C(=O)c1ccc(C(C)(C)C)cc1` [5bc], the “SI (selectivity index, SI = CC50/IC50)” value in data set [1] is recorded as above 10.17; in data set [2], above 1.42. The half-inhibitory concentration (IC50) in data set [1] was 30.9 ± 3.11 µM; in data set [2] it was 221 ± 36.9 µM; in data set [3], above 100 µg/mL; in data set [5], 60.6 ± 7.88 µM. Also, the 50% cytotoxic concentration (CC50) at 24 h in data set [4] (setting [7]) and in data set [4] (setting [8]) was above 314 µM in each case.
On to `C=CCCCC(N)C[C@H]1OC(n2cnc3c(N)ncnc32)[C@H](O)[C@@H]1O` (some centres unmarked) [CHEMBL607696], for which the Ki (commonly a measure of affinity in units of concentration, obtained from inhibition or displacement) in data set [6] was 877 µM.
In the case of `Nc1ncnc2c1ncn2C1O[C@H](C[C@@H](N)CC[C@@H](N)C(=O)O)[C@@H](O)[C@H]1O` (some centres unmarked) [CHEMBL608870], in data set [6], the Ki was 49 µM.
`NCCC(CN)C[C@H]1OC(n2cnc3c(N)ncnc32)[C@H](O)[C@@H]1O` (some centres unmarked) [CHEMBL611866]: the inhibition constant (Ki) in data set [6] was 1120 µM.
For `CCCCCCCCCCCCCCCCOP(=O)([O-])OCC[N+](C)(C)C` [miltefosine, reference compound], the 50% inhibitory concentration (IC50) in data set [1] was 30.7 ± 8.8 µM; in data set [2] it was 0.24 ± 0.02 µM; in data set [5] it was 47.6 ± 7.04 µM. The CC50 – broadly, the concentration at which the toxic effect on the cells reaches its halfway point – at 24 h worked out at 55.4 ± 4.19 µM in data set [4] (setting [7]) and 136 ± 10.2 µM in data set [4] (setting [8]).
